Assay results as given in paper PMC2857651, “A Single Amino Acid Change Converts the Sugar Sensor SGLT3 into a Sugar Transporter” (PLoS ONE, 2010).
Blank lines part the entries; values can stand above or below the molecule they belong to.

Columns and labels:
hSGLT3 [1] = target: T1, hSGLT3 (Homo sapiens, UniProt Q9NY91); assay: sugar-induced current, two-electrode voltage clamp in Xenopus oocytes; assay type: cell-based; details: 150 mM αM-glc, Na+ buffer; bound but not transported
T1 construct: gene SLC5A4; full-length cDNA, cRNA expressed in Xenopus laevis oocytes (untagged in the oocyte tests)
T1 sequence (Q9NY91 1-659): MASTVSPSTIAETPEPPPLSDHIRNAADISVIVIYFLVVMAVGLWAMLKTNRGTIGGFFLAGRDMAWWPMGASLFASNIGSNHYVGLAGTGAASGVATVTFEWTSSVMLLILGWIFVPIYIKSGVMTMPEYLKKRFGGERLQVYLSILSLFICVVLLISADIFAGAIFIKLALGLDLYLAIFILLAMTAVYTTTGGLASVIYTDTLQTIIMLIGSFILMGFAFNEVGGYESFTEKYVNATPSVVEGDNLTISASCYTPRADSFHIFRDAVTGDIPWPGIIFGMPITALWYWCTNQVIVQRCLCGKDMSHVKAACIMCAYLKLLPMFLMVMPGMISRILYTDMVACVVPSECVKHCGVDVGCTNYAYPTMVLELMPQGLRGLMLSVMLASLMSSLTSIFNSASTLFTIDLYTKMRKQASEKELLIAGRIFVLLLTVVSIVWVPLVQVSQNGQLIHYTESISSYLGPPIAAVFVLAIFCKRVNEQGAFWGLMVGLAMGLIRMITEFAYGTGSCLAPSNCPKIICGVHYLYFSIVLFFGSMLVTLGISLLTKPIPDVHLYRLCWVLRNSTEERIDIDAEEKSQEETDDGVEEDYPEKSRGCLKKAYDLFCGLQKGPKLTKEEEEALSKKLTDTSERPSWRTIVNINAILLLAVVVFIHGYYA

hSGLT3 [2] = target: T1, hSGLT3; assay: inhibition of glucose-induced current, two-electrode voltage clamp in Xenopus oocytes; assay type: cell-based; details: pH 5, glucose present; phlorizin also blocks about two-thirds of the H+-induced current
hSGLT3 [3] = target: T2, hSGLT3 (Homo sapiens, UniProt Q9NY91, E457Q); assay: inhibition of αM-glc-induced depolarization, two-electrode recording in Xenopus oocytes; assay type: cell-based; details: read-out: E457Q-hSGLT3 / K0.5
T2 construct: gene SLC5A4; full-length cDNA, cRNA expressed in Xenopus laevis oocytes (untagged in the oocyte tests)
T2 sequence (Q9NY91 1-659 E457Q): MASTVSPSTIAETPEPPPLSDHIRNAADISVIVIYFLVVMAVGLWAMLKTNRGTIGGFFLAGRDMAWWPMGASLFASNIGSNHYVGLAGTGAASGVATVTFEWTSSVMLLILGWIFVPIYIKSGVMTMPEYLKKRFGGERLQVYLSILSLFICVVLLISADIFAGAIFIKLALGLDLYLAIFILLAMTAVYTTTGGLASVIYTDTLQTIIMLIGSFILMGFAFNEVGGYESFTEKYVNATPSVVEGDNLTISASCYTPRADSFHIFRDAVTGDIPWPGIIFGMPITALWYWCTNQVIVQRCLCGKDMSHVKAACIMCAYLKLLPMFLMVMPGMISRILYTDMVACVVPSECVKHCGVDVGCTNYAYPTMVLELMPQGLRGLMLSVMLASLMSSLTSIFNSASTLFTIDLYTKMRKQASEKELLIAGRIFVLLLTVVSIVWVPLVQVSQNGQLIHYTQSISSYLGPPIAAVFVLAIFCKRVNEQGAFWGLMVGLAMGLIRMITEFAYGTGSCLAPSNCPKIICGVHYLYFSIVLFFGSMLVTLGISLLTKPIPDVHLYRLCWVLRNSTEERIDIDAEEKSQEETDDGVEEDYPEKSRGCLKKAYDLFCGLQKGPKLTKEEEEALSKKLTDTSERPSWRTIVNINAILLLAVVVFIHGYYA
Excerpt: inhibition of αM-glc-induced depolarization, two-electrode recording in Xenopus oocytes on hSGLT3

[4] = substrate: CO[C@H]1O[C@H](CO)[C@@H](O)[C@H](O)[C@H]1O; assay: sugar-induced depolarization, two-electrode recording in Xenopus oocytes; assay type: cell-based, Homo sapiens; details: 100 mM Na+, pH 7.4, room temperature, n = 3
Excerpt: sugar-induced depolarization, two-electrode recording in Xenopus oocytes on hSGLT3

Molecule: CO[C@H]1O[C@H](CO)[C@@H](O)[C@H](O)[C@H]1O [αM-glc]
- sugar-induced current, two-electrode voltage clamp in Xenopus oocytes (hSGLT3 [1]): sugar-induced current (difference between black and open circles in 3D and 3G)

- % inhibition at 100 μM (hSGLT3 [2]): 2/3
- Ki (hSGLT3 [3]): 1600 ± 90 nM
Molecule: O=C(CCc1ccc(O)cc1)c1c(O)cc(O)cc1O[C@@H]1O[C@H](CO)[C@@H](O)[C@H](O)[C@H]1O [phlorizin]

B1: hSGLT3 (Homo sapiens; E457Q) (protein)
chain: MASTVSPSTIAETPEPPPLSDHIRNAADISVIVIYFLVVMAVGLWAMLKTNRGTIGGFFLAGRDMAWWPMGASLFASNIGSNHYVGLAGTGAASGVATVTFEWTSSVMLLILGWIFVPIYIKSGVMTMPEYLKKRFGGERLQVYLSILSLFICVVLLISADIFAGAIFIKLALGLDLYLAIFILLAMTAVYTTTGGLASVIYTDTLQTIIMLIGSFILMGFAFNEVGGYESFTEKYVNATPSVVEGDNLTISASCYTPRADSFHIFRDAVTGDIPWPGIIFGMPITALWYWCTNQVIVQRCLCGKDMSHVKAACIMCAYLKLLPMFLMVMPGMISRILYTDMVACVVPSECVKHCGVDVGCTNYAYPTMVLELMPQGLRGLMLSVMLASLMSSLTSIFNSASTLFTIDLYTKMRKQASEKELLIAGRIFVLLLTVVSIVWVPLVQVSQNGQLIHYTQSISSYLGPPIAAVFVLAIFCKRVNEQGAFWGLMVGLAMGLIRMITEFAYGTGSCLAPSNCPKIICGVHYLYFSIVLFFGSMLVTLGISLLTKPIPDVHLYRLCWVLRNSTEERIDIDAEEKSQEETDDGVEEDYPEKSRGCLKKAYDLFCGLQKGPKLTKEEEEALSKKLTDTSERPSWRTIVNINAILLLAVVVFIHGYYA
notes: full-length cDNA, cRNA expressed in Xenopus laevis oocytes (untagged in the oocyte tests)
- K0.5 [4]: 0.5 ± 0.03 mM
